In patent US8013006B2:

Legend:
HCV replicon = experiment: microbe, parasite or virus in culture; type: cell-based; conditions: Hepatitis C virus, 48 h, read-out: Replicon IC5Os

Structure (SMILES) | melting point | IC50 (HCV replicon)
CCOc1ccc2c(C#N)c(-c3ccc(NS(=O)(=O)CC)cc3)n(C3CCC3)c2c1 [Compound 473] | 189 to 191 °C | < 500 nM
CCn1c(-c2ccc(NS(C)(=O)=O)cc2)c(C#N)c2ccc(OCCCl)cc21 [Compound 477] | 194 to 195 °C | < 500 nM
CCn1c(-c2ccc(NS(C)(=O)=O)cc2)c(C#N)c2ccc(OCCN3CCSCC3)cc21 [Compound 480] | 207 to 208 °C | < 500 nM
CCCS(=O)(=O)Nc1ccc(-c2c(C#N)c3ccc(OCCCl)cc3n2CC)cc1 [Compound 495] | 126 to 128 °C | 500 to 2000 nM
CCn1c(-c2ccc(NS(C)(=O)=O)cc2)c(C#N)c2ccc(OCCN(C)C)cc21 [Compound 498] | 192 to 194 °C | 500 to 2000 nM
CCn1c(-c2ccc(NS(=O)(=O)CC)cc2)cc2ccc(OC(F)F)cc21 [Compound 516, ethanesulfonic acid [4-(6-difluoromethoxy-1-ethyl-1H-iodo-2-yl)-phenyl]-amide] | 155 to 156 °C | 500 to 2000 nM
Cn1c(-c2ccc(NS(C)(=O)=O)cc2)c(C#N)c2ccc(OC(F)F)cc21 [Compound 518] | 197 to 199 °C | 500 to 2000 nM
CCn1c(-c2ccc(NS(=O)(=O)CC)cc2)c(C#N)c2ccc(OC(F)F)cc21 [Compound 520] | 175 to 177 °C | < 500 nM
CCCn1c(-c2ccc(NS(C)(=O)=O)cc2)c(C#N)c2ccc(OC(F)F)cc21 [Compound 521] | 184 to 186 °C | < 500 nM
CC(C)n1c(-c2ccc(NS(C)(=O)=O)cc2)c(C#N)c2ccc(OC(F)F)cc21 [Compound 523] | 190 to 192 °C | < 500 nM
CCn1c(-c2cccc(NS(=O)(=O)NC(C)C)c2)c(C#N)c2ccc(OC)cc21 [Compound 542] | 186 to 188 °C | 500 to 2000 nM
CCn1c(-c2ccc(N)cc2)c(C#N)c2ccc(OCCF)cc21 [Compound 543] | 197 to 200 °C | 500 to 2000 nM
CCn1c(-c2ccc(NC(=O)C3CC3)cc2)c(C#N)c2ccc(OCCF)cc21 [Compound 544] | 263 to 265 °C | < 500 nM
CCn1c(-c2ccc(NC(=O)OC)cc2)c(C#N)c2ccc(OCCF)cc21 [Compound 545] | 203 to 205 °C | 500 to 2000 nM
CCOC(=O)Nc1ccc(-c2c(C#N)c3ccc(OCCF)cc3n2CC)cc1 [Compound 546] | 208 to 210 °C | < 500 nM
CCn1c(-c2ccc(NS(C)(=O)=O)cc2)c(C#N)c2ccc(OCCF)cc21 [Compound 548] | 171 to 174 °C | 500 to 2000 nM
CCn1c(-c2ccc(NS(=O)(=O)CC)cc2)c(C#N)c2ccc(OCCF)cc21 [Compound 549] | 150 to 153 °C | < 500 nM
CCCS(=O)(=O)Nc1ccc(-c2c(C#N)c3ccc(OCCF)cc3n2CC)cc1 [Compound 550] | 183 to 185 °C | 500 to 2000 nM
CCn1c(-c2ccc(NS(=O)(=O)CCCCl)cc2)c(C#N)c2ccc(OCCF)cc21 [Compound 551] | 187 to 190 °C | 500 to 2000 nM
CCn1c(-c2ccc(NS(=O)(=O)C3CC3)cc2)c(C#N)c2ccc(OCCF)cc21 [Compound 552] | 185 to 188 °C | < 500 nM
CCCS(=O)(=O)Nc1cccc(-c2c(C#N)c3ccc(C(F)(F)F)cc3n2CC)c1 [Compound 563] | 210 to 212 °C | 500 to 2000 nM

Structure (SMILES) | melting point | IC50 (HCV replicon)
CCn1c(-c2ccc(NC(=O)C3CCC3)cc2)c(C#N)c2ccccc21 [Compound 567] | 238.2 to 238.6 °C | 500 to 2000 nM
CCn1c(-c2ccc(C(=O)NC(C)C)cc2)c(C#N)c2cc(OC)ccc21 [Compound 570] | 220 to 222 °C | 500 to 2000 nM
CCS(=O)(=O)Nc1ccc(-c2c(C#N)c3cc(OC)ccc3n2C)cc1 [Compound 580] | 198 to 200 °C | < 500 nM
CCCS(=O)(=O)Nc1ccc(-c2c(C#N)c3cc(Cl)ccc3n2CC)cc1 [Compound 601] | 195 to 200 °C | < 500 nM
CCn1c(-c2ccc(NS(=O)(=O)C3CC3)cc2)c(C#N)c2cc(Cl)ccc21 [Compound 602] | 179 to 184 °C | < 500 nM
CCCOC(=O)Nc1cccc(-c2c(C#N)c3cc(N4CCOCC4)ccc3n2CC)c1 [Compound 606] | 166 to 170 °C | < 500 nM
CCn1c(-c2cccc(NC(=O)OCCOC)c2)c(C#N)c2cc(N3CCOCC3)ccc21 [Compound 607] | 189 to 194 °C | < 500 nM
COc1ccc2c(C#N)c(-c3ccc(NS(C)(=O)=O)cc3)n(CC3CC3)c2c1 [Compound 611] | 126 to 128 °C | 500 to 2000 nM
CCS(=O)(=O)Nc1ccc(-c2c(C#N)c3ccc(OC)cc3n2CC2CC2)cc1 [Compound 612] | 198 to 200 °C | 500 to 2000 nM
CS(=O)(=O)Nc1ccc(-c2c(C#N)c3ccc(OC(F)F)cc3n2CC2CC2)cc1 [Compound 613] | 198 to 200 °C | < 500 nM
CCS(=O)(=O)Nc1ccc(-c2c(C#N)c3ccc(OC(F)F)cc3n2CC2CC2)cc1 [Compound 614] | 176 to 177 °C | < 500 nM
CCCCS(=O)(=O)Nc1ccc(-c2c(C#N)c3cc(Cl)ccc3n2CC)cc1 [Compound 616] | 143 to 149 °C | < 500 nM
CCn1c(-c2ccc(NS(=O)(=O)CCCCl)cc2)c(C#N)c2cc(Cl)ccc21 [Compound 617] | 164 to 167 °C | < 500 nM
CCOC(=O)Nc1ccc(-c2c(C#N)c3cc(Cl)ccc3n2CC)cc1 [Compound 618] | 205 to 211 °C | < 500 nM
CCCOC(=O)Nc1ccc(-c2c(C#N)c3cc(Cl)ccc3n2CC)cc1 [Compound 619] | 201 to 206 °C | 500 to 2000 nM
CCCn1c(-c2ccc(NS(=O)(=O)CCC)cc2)c(C#N)c2ccc(OC)cc21 [Compound 621] | 187 to 188 °C | 500 to 2000 nM
CCCn1c(-c2ccc(NS(=O)(=O)C(C)C)cc2)c(C#N)c2ccc(OC)cc21 [Compound 622] | 182 to 183 °C | 500 to 2000 nM
CCCn1c(-c2ccc(NS(=O)(=O)Cc3ccccc3)cc2)c(C#N)c2ccc(OC)cc21 [Compound 623] | 217 to 218 °C | 500 to 2000 nM
CCCn1c(-c2ccc(NC(=O)NCC)cc2)c(C#N)c2ccc(OC)cc21 [Compound 626] | 193 to 194 °C | 500 to 2000 nM
CCCNC(=O)Nc1ccc(-c2c(C#N)c3cc(Cl)ccc3n2CC)cc1 [Compound 628] | 221 to 226 °C | 500 to 2000 nM
CCS(=O)(=O)Nc1ccc(-c2c(C#N)c3cc(Cl)ccc3n2CCC(C)C)cc1 [Compound 631] | 177 to 182 °C | 500 to 2000 nM

Structure (SMILES) | melting point | IC50 (HCV replicon)
C=Cn1c(-c2ccc(NS(=O)(=O)CC)cc2)c(C#N)c2ccc(OC)cc21 [Compound 633] | 159 to 161 °C | 500 to 2000 nM
C=Cn1c(-c2ccc(NS(=O)(=O)C3CC3)cc2)c(C#N)c2ccc(OC)cc21 [Compound 635] | 200 to 201 °C | < 500 nM
CCCn1c(-c2ccc(NC(=O)OC(C)C)cc2)c(C#N)c2ccc(OC)cc21 [Compound 641] | 177 to 178 °C | 500 to 2000 nM
CCn1c(-c2ccc(CNS(C)(=O)=O)cc2)c(C#N)c2ccc(OC)cc21 [Compound 650] | 165 to 166 °C | 500 to 2000 nM
CCn1c(-c2ccc(N(C)S(=O)(=O)CCl)cc2)c(C#N)c2ccc(OC)cc21 [Compound 652] | 191 to 194 °C | < 500 nM
CCCOc1ccc2c(C#N)c(-c3ccc(N4CCCS4(=O)=O)cc3)n(CC)c2c1 [Compound 667] | 242 to 244 °C | < 500 nM
CCn1c(-c2ccc(NS(=O)(=O)CC)cc2)c(C#N)c2ccc(OCc3cccnc3)cc21 [Compound 669] | 213 to 215 °C | < 500 nM
CCn1c(-c2ccc(NS(=O)(=O)C3CC3)cc2)c(C#N)c2ccc(OCc3cccnc3)cc21 [Compound 670] | 231 to 233 °C | < 500 nM
CCn1c(-c2ccc(NS(=O)(=O)CC)cc2)c(C#N)c2ccc(OCc3ccccn3)cc21 [Compound 671] | 221 to 222 °C | < 500 nM
CCOC(=O)Nc1ccc(-c2c(C#N)c3ccc(OC)cc3n2CCOC)cc1 [Compound 676] | 174 to 175 °C | 500 to 2000 nM
CCCOC(=O)Nc1ccc(-c2c(C#N)c3ccc(OC)cc3n2CCOC)cc1 [Compound 677] | 133 to 134 °C | 500 to 2000 nM
CCNC(=O)N1CCc2cc(-c3c(C#N)c4ccc(OC)cc4n3CC)ccc21 [Compound 679] | 212 to 220 °C | 500 to 2000 nM
CCCNC(=O)N1CCc2cc(-c3c(C#N)c4ccc(OC)cc4n3CC)ccc21 [Compound 680] | 163 to 168 °C | < 500 nM
CCn1c(-c2ccc3c(c2)CCN3C(=O)NC(C)C)c(C#N)c2ccc(OC)cc21 [Compound 681] | 192 to 197 °C | 500 to 2000 nM
CCOc1ccc2c(C#N)c(-c3ccc(N(C)S(C)(=O)=O)cc3)n(C3CCC3)c2c1 [Compound 690] | 192 to 193 °C | 500 to 2000 nM
CCOc1ccc2c(C#N)c(-c3ccc(N(C)S(=O)(=O)CC)cc3)n(C)c2c1 [Compound 692] | 175 to 176 °C | 500 to 2000 nM
CCOc1ccc2c(C#N)c(-c3ccc(N(C)S(=O)(=O)CC)cc3)n(CC)c2c1 [Compound 693] | 163 to 164 °C | < 500 nM
CCn1c(-c2ccc(N3CCCS3(=O)=O)cc2)c(C#N)c2ccc(OCCF)cc21 [Compound 699] | 255 to 258 °C | < 500 nM
CCn1c(-c2ccc3c(c2)CCN3S(C)(=O)=O)c(C#N)c2ccc(OC)cc21 [Compound 701] | 188 to 194 °C | 500 to 2000 nM
CCn1c(-c2ccc3c(c2)CCN3S(=O)(=O)CC)c(C#N)c2ccc(OC)cc21 [Compound 702] | 147 to 150 °C | 500 to 2000 nM
